Data from patent US20230095836A1, “SUBSTITUTED 5,6-DIPHENYL-3(2H)-PYRIDAZINONES FOR USE AS FUNGICIDES” (FMC Corporation, priority 2020, published 2023).

Columns and labels:
Assay type in all cases: in vivo
Botrytis cinerea = assay: Test E: test suspension sprayed on tomato seedlings, inoculated next day with Botrytis cinerea (tomato Botrytis); visual disease rating (100 = 100% disease control, 0 = no control; dash = not tested)
Procedure, shortened: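 Spores were applied one day after spraying the seedlings to run-off. Incubation was 48 h saturated at 20° C, then 3 days in a 24° C growth chamber. Visual ratings, relative to untreated controls, run from 0 (no control) to 100 (complete control).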

Alternaria solani = assay: Test F: test suspension sprayed on tomato seedlings, inoculated next day with Alternaria solani (tomato early blight); visual disease rating (100 = 100% disease control, 0 = no control; dash = not tested)
Procedure, shortened: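 Visual ratings of % disease control versus controls were made after inoculated plants spent 48 h at 27° C. in saturated air plus 3 days at 20° C. The compound suspension had been sprayed to run-off one day before spore inoculation.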

[1] = tested on: Blumeria graminis f. sp. tritici; assay: Test C: test suspension sprayed on wheat seedlings, inoculated next day with Blumeria graminis f. sp. tritici (wheat powdery mildew); visual disease rating (100 = 100% disease control, 0 = no control; dash = not tested)
Procedure, shortened: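 Visual ratings of disease control (0–100, relative to controls) were made 8 days after inoculation with B. graminis f. sp. tritici spore dust. Plants were held at 20 °C. Compound was applied as a spray to run-off one day before inoculation.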

Zymoseptoria tritici = assay: Test A: test solution sprayed on wheat seedlings, inoculated next day with Zymoseptoria tritici (wheat leaf blotch); disease rating (100 = 100% disease control, 0 = no control; dash = not tested)
Procedure, shortened: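 Preventive spray test: compound applied to run-off one day before spore inoculation of wheat seedlings. Incubation was 48 h saturated humidity at 24° C followed by 17 days at 20° C. Disease then scored 0–100 as % control versus untreated plants.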

Phakopsora pachyrhizi = assay: Test D: test solution sprayed on soybean seedlings, inoculated next day with Phakopsora pachyrhizi (Asian soybean rust); visual disease rating (100 = 100% disease control, 0 = no control; dash = not tested)
Procedure, shortened: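 Preventive spray test: soybean seedlings treated to run-off with ppm-level suspensions (acetone/water 50/50, 250 ppm PEG400), spore-inoculated one day later. Held 24 h at 22 °C in saturated air, then 8 days at 22 °C; disease control scored visually versus untreated plants, 0 = none, 100 = complete.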

[2] = tested on: Puccinia recondita f. sp. tritici; assay: Test B: test solution sprayed on wheat seedlings, inoculated next day with Puccinia recondita f. sp. tritici (wheat leaf rust); disease rating (100 = 100% disease control, 0 = no control; dash = not tested)
From the text: The resulting test suspensions were then used in Tests A-F. The test solution was sprayed to the point of run-off on wheat seedlings. […] A rating of 100 indicates 100% disease control and a rating of 0 indicates no disease control (relative to the controls). A dash (—) indicates the compound was not tested.

| Compound | Test E disease control rating (Botrytis cinerea; 50 ppm) | Test F disease control rating (Alternaria solani; 50 ppm) | Test C disease control rating ([1]; 50 ppm) | Test A disease control rating (Zymoseptoria tritici; 50 ppm) | Test D disease control rating (Phakopsora pachyrhizi; 50 ppm) | Test B disease control rating ([2]; 50 ppm) | further results |
| --- | --- | --- | --- | --- | --- | --- | --- |
| CCCc1c(-c2ccc(F)cc2Cl)c(-c2cc(OC)ccc2Cl)nn(C)c1=O [Compound 125] | 99% | 0% | 97% | 100% | 17% | 0% |  |
| Cn1nc(-c2cc(F)ccc2Cl)c(-c2ccc(F)cc2Cl)cc1=O [Compound 126] | 98% | 15% | 98% | 95% | 0% | 74% |  |
| Cc1c(-c2ccc(F)cc2Cl)c(-c2cc(F)ccc2Cl)nn(C)c1=O [Compound 128] | 98% | 100% | 100% | 100% | 99% | 100% |  |
| CCc1c(-c2ccc(F)cc2Cl)c(-c2cc(F)ccc2Cl)nn(C)c1=O [Compound 129] | 99% | 100% | 100% | 100% | 67% | 100% |  |
| CCc1c(-c2ccc(F)cc2Cl)c(-c2cc(OC)ccc2Cl)nn(C)c1=O [Compound 134, 5-(2-chloro-4-fluorophenyl)-6-(2-chloro-5-methoxyphenyl)-4-ethyl-2-methyl-3(2H)-pyridazinone] |  |  |  |  |  |  | pest or weed control at 50 ppm (Botrytis cinerea; 50 ppm): 98%; pest or weed control at 50 ppm (Alternaria solani; 50 ppm): 100%; pest or weed control at 50 ppm ([1]; 50 ppm): 100%; pest or weed control at 50 ppm (Zymoseptoria tritici; 50 ppm): 100%; pest or weed control at 50 ppm (Phakopsora pachyrhizi; 50 ppm): 96%; pest or weed control at 50 ppm ([2]; 50 ppm): 100% |
| COc1ccc(C)c(-c2nn(C)c(=O)c(C)c2-c2ccc(F)cc2Cl)c1 [Compound 135] | 97% | 100% | 100% | 100% | 100% | 100% |  |
| Cc1ccc(Cl)c(-c2nn(C)c(=O)c(C)c2-c2ccc(F)cc2Cl)c1 [Compound 136, 5-(2-chloro-4-fluorophenyl)-6-(2-chloro-5-methylphenyl)-2,4-dimethyl-3(2H)-pyridazinone] |  |  |  |  |  |  | pest or weed control at 50 ppm (Botrytis cinerea; 50 ppm): 95%; pest or weed control at 50 ppm (Alternaria solani; 50 ppm): 40%; pest or weed control at 50 ppm ([1]; 50 ppm): 100%; pest or weed control at 50 ppm (Zymoseptoria tritici; 50 ppm): 99%; pest or weed control at 50 ppm (Phakopsora pachyrhizi; 50 ppm): 97%; pest or weed control at 50 ppm ([2]; 50 ppm): 100% |
| COc1cc(F)c(F)c(-c2nn(C)c(=O)c(C)c2-c2ccc(F)cc2Cl)c1 [Compound 137] | 66% | 100% | 100% | 100% | 100% | 100% |  |
| COc1ccc(F)c(-c2nn(C)c(=O)c(C)c2-c2ccc(F)cc2Cl)c1 [Compound 138] | 93% | 100% | 100% | 100% | 100% | 100% |  |
| COc1ccc(Cl)c(-c2nn(C)c(=O)c(C3CC3)c2-c2ccc(F)cc2Cl)c1 [Compound 139] | 93% | 9% | 91% | 100% | 0% | 86% |  |
| COc1cccc(-c2nn(C)c(=O)c(Cl)c2-c2ccc(F)cc2Cl)c1Cl [Compound 140] | 99% | 100% | 99% | 99% | 100% | 100% |  |
| Cn1nc(-c2ccccc2)c(-c2ccc(F)cc2Cl)c(Cl)c1=O [Compound 141, 4-chloro-5-(2-chloro-4-fluorophenyl)-2-methyl-6-phenyl-3(2H)-pyridazinone] |  |  |  |  |  |  | pest or weed control at 50 ppm (Botrytis cinerea; 50 ppm): 98%; pest or weed control at 50 ppm (Alternaria solani; 50 ppm): 99%; pest or weed control at 50 ppm ([1]; 50 ppm): 99%; pest or weed control at 50 ppm (Zymoseptoria tritici; 50 ppm): 99%; pest or weed control at 50 ppm (Phakopsora pachyrhizi; 50 ppm): 0%; pest or weed control at 50 ppm ([2]; 50 ppm): 98% |
| COc1c(-c2ccc(F)cc2Cl)c(-c2ccccc2)nn(C)c1=O [Compound 142, 5-(2-chloro-4-fluorophenyl)-4-methoxy-2-methyl-6-phenyl-3(2H)-pyridazinone] |  |  |  |  |  |  | pest or weed control at 50 ppm (Botrytis cinerea; 50 ppm): 98%; pest or weed control at 50 ppm (Alternaria solani; 50 ppm): 98%; pest or weed control at 50 ppm ([1]; 50 ppm): 99%; pest or weed control at 50 ppm (Zymoseptoria tritici; 50 ppm): 95%; pest or weed control at 50 ppm (Phakopsora pachyrhizi; 50 ppm): 0%; pest or weed control at 50 ppm ([2]; 50 ppm): 68% |
| CCOC(=O)c1c(-c2ccc(F)cc2Cl)c(-c2ccc(F)cc2Cl)nn(C)c1=O [Compound 143] |  |  |  |  |  |  | Test E disease control rating (Botrytis cinerea; 250 ppm): 0%; Test F disease control rating (Alternaria solani; 250 ppm): 0%; Test C disease control rating ([1]; 250 ppm): 100%; Test A disease control rating (Zymoseptoria tritici; 250 ppm): 6%; Test D disease control rating (Phakopsora pachyrhizi; 250 ppm): 0%; Test B disease control rating ([2]; 250 ppm): 80% |
| Cn1nc(-c2ccc(F)cc2Cl)c(-c2ccc(F)cc2Cl)c(C(=O)O)c1=O [Compound 144] |  |  |  |  |  |  | Test E disease control rating (Botrytis cinerea; 250 ppm): 0%; Test F disease control rating (Alternaria solani; 250 ppm): 0%; Test C disease control rating ([1]; 250 ppm): 0%; Test A disease control rating (Zymoseptoria tritici; 250 ppm): 0%; Test D disease control rating (Phakopsora pachyrhizi; 250 ppm): 74%; Test B disease control rating ([2]; 250 ppm): 0% |
| Cn1nc(-c2cccc(F)c2Cl)c(-c2ccc(F)cc2Cl)c(Cl)c1=O [Compound 145] | 100% | 100% | 100% | 100% | 99% | 100% |  |
| COc1cccc(-c2nn(C)c(=O)c(OC)c2-c2ccc(F)cc2Cl)c1Cl [Compound 146] | 98% | 99% | 100% | 100% | 96% | 100% |  |
| CCOC(=O)c1c(-c2ccc(F)cc2Cl)c(-c2ccc(F)cc2Cl)nn(C)c1=O [Compound 153] |  |  |  |  |  |  | Test E disease control rating (Botrytis cinerea; 250 ppm): 0%; Test F disease control rating (Alternaria solani; 250 ppm): 0%; Test C disease control rating ([1]; 250 ppm): 96%; Test A disease control rating (Zymoseptoria tritici; 250 ppm): 0%; Test D disease control rating (Phakopsora pachyrhizi; 250 ppm): 71%; Test B disease control rating ([2]; 250 ppm): 0% |
| COc1c(-c2ccc(F)cc2Cl)c(-c2cccc(F)c2Cl)nn(C)c1=O [Compound 154] | 100% | 100% | 100% | 100% | 87% | 100% |  |
| COc1cc(OC)c(F)c(-c2nn(C)c(=O)c(Cl)c2-c2ccc(F)cc2Cl)c1 [Compound 155] | 100% | 100% | 100% | 99% | 100% | 100% |  |
| Cn1nc(-c2ccc(F)cc2Br)c(-c2ccc(F)cc2Cl)c(Cl)c1=O [Compound 156] | 100% | 87% | 99% | 99% | 96% | 100% |  |
| COc1cc(F)c(Cl)c(-c2nn(C)c(=O)c(Cl)c2-c2ccc(F)cc2Cl)c1 [Compound 157] | 99% | 100% | 100% | 98% | 100% | 100% |  |
| COc1cc(F)cc(-c2nn(C)c(=O)c(Cl)c2-c2ccc(F)cc2Cl)c1Br [Compound 158] | 99% | 99% | 100% | 100% | 100% | 100% |  |
| COc1cc(F)c(Br)c(-c2nn(C)c(=O)c(Cl)c2-c2ccc(F)cc2Cl)c1 [Compound 159] | 99% | 100% | 99% | 100% | 100% | 100% |  |
| COc1c(-c2ccc(F)cc2Cl)c(-c2ccccc2Cl)nn(C)c1=O [Compound 160] | 99% | 0% | 100% | 100% | 73% | 100% |  |
| Cc1c(-c2ccc(F)cc2Cl)c(-c2cc(O)ccc2Cl)nn(C)c1=O [Compound 161] | 96% | 47% | 100% | 98% | 99% | 99% |  |
